Measured values: paper PMC12079242, “Design, Synthesis, Biological Evaluation, and Molecular Docking Studies of Novel 1,3,4-Thiadiazole Derivatives Targeting Both Aldose Reductase and α-Glucosidase for Diabetes Mellitus” (ACS Omega, 2025)
Each block holds one compound with its values, some of them ahead of it.

Legend:
[1] = molecular target: α-Glucosidase from Saccharomyces cerevisiae; experiment: α-Glycosidase inhibition assay with pNPG substrate; type: biochemical; details: for IC50: mean ± SEM, read-out: α-GLY IC50; for Ki: Lineweaver–Burk plots, read-out: α-GLY KI
Experimental: α-Glucosidase activity (α-Glucosidase from Saccharomyces cerevisiae) was assessed using p-nitrophenyl-D-glycopyranoside (pNPG) as the substrate, following the procedure outlined by Tao et al.[60],[61] Initially, 100 μL of phosphate buffer was mixed with 20 μL of the enzyme solution (0.15 U/mL, pH 6.8) and 10–100 μL (0.01–1 mg/mL^–1) of the sample. To ensure complete enzyme inhibition, multiple solutions were prepared in phosphate buffer. The mixture was preincubated at 35 °C for 12 min before the reaction was initiated by adding pNPG. Subsequently, 50 μL of pNPG solution (5.0 mM, pH 7.4) was added and incubated at 37 °C. Absorbance was measured spectrophotometrically at 405 nm.
Furthermore, the types of inhibition and inhibition constants (KI) were calculated from Lineweaver–Burk plots, providing detailed insights into the kinetic properties of these inhibitors.[62],[63]

[2] = system: L929 fibroblast cell line; experiment: MTT cell viability assay; type: cell-based; details: Mus musculus; L929, 24 h incubation, 5–100 μM
Experimental: Healthy mouse fibroblast cell line (L929) was obtained from ATCC (American Type Culture Collection) and studied. Cells were mixed with 89% DMEM (Dulbecco’s modified Eagle’s medium; Gibco, Thermo Fisher Scientific), 10% FBS (Fetal Bovine Serum; Sigma-Aldrich) and 1% penicillin (Sigma-Aldrich) solutions. The cells in which the medium was added were allowed to grow by incubating at 37 °C in an environment containing 95% humidity and 5% CO2.[66],[67]
The cytotoxic effects of all syntheses by MTT analysis on L929 cell line was investigated. 96-well plates were used for seeding cells. Approximately 1 × 10^4 cells were seeded in each well. Cells were allowed to adhere for 24 h and then the syntheses were applied at different concentrations (5–100 μM). After adding syntheses at different concentrations, the wells were incubated for 24 h. All wells without syntheses were used as controls. After the incubation, the wells were treated with MTT solution to determine metabolically active cells and incubated at 37 °C for 3 h. After the MTT interaction, the wells were emptied and DMSO solution was placed in them. The formazan crystals formed were dissolved with this solution and the number of viable cells in each well was determined by color change. The absorbance values were read at 540 nm with the help of a microplate and the values found were represented as mean ± standard deviation (±SD).[66],[67]

S. typhimurium TA 98 = experiment: Ames II mutagenicity test, TA 98; type: cell-based, Salmonella typhimurium
Experimental: (§1) Ames II Mutagenicity Assay Kit BioReliance and Moltox (Moltox, Boone, NC) kit were used in the experiment and the experiment was performed completely according to the kit procedure.[68]S. typhimurium TA 98 (hisD3052) and TA mix (hisG1775, hisC9138, hisG9074, hisG9133, hisG9130, hisC9070) strains were incubated in 50 mL tubes containing 10 mL growth medium at 37 °C for 24 h. At the end of the time, the OD600 value of the suspension was measured. Since the OD600 value ≥ 2.0, the experimental procedure was continued. The dilutions of 10 μL of compound 6h at 75, 37.5, 18.75, 9.4, 4.7 μM and compound 6o at […] were prepared at 5 different concentrations of the test substances dissolved in DMSO. The exposure plates (24 wells) with and without the S9 enzyme fraction were prepared for both strains. The exposure medium, bacteria, and test substance were added to the plates without S9 enzyme fraction in the amounts specified in the procedure; S9 enzyme fraction was added to the plates containing S9 enzyme fraction and incubated at 37 °C, 250 rpm for 90 min with shaking. At the end of the incubation period, […] of purple colored indicator medium specific for bacterial strains was added to each well of the plate. 4-Nitroquinoline-N-Oxide (4-NQO) - 2-Nitrofluorene (2-NF), and 2-Aminoanthracene (2-AA) were used as positive control and only DMSO was used as negative control. The contents of 50 μL in each well were transferred to 384 plates according to the determined experimental design and incubated at 37 °C for 48 h. At the end of the incubation period, bacterial metabolism in the plates changes the pH and changes the purple color to yellow. The number of yellow wells formed at the end of the experiment was determined as positive wells and the genotoxic properties of the substances were interpreted. Means and SD values of positive wells were calculated.[69]

S. typhimurium TA mix = experiment: Ames II mutagenicity test, TA mix; type: cell-based, Salmonella typhimurium; details: for Average number of the positive wells: TA Mix; for mutagenicity: TA mix strain
Experimental: as §1

IC50 [1]: > 500 µM
SMILES: CCCNc1nnc(SCC(=O)N(Cc2ccc([N+](=O)[O-])cc2)c2ccc(F)cc2)s1 [6k, N-(4-Fluorophenyl)-2-[(5-(propylamino)-1,3,4-thiadiazol-2-yl)thio]-N-(4-nitrobenzyl) Acetamide]

Ki [1]: 12 ± 0.97 µM | IC50 [1]: 12.2 ± 0.87 µM
SMILES: O=C(CSc1nnc(Nc2ccccc2)s1)N(Cc1ccc([N+](=O)[O-])cc1)c1ccc(Cl)cc1 [6g, N-(4-Chlororophenyl)-2-[(5-(phenylamino)-1,3,4-thiadiazol-2-yl)thio]-N-(4-nitrobenzyl) Acetamide]
IC50 [2]: 99.5 ± 5.66 µM

SMILES: O=C(CSc1nnc(NC2CCCCC2)s1)N(Cc1ccc([N+](=O)[O-])cc1)c1ccc(F)cc1 [6o, N-(4-Fluorophenyl)-2-[(5-(cyclohexylamino)-1,3,4-thiadiazol-2-yl)thio]-N-(4-nitrobenzyl)acetamide]
Ki [1]: 12.5 ± 1.08 µM | IC50 [1]: 34.6 ± 1.78 µM | Average number of the positive wells (S. typhimurium TA 98; TA 98, S9+, 3.125 nM): 0 | Average number of the positive wells (S. typhimurium TA 98; TA 98, S9+, 6.25 nM): 0 | Average number of the positive wells (S. typhimurium TA 98; TA 98, S9+, 12.5 nM): 0 | Average number of the positive wells (S. typhimurium TA 98; TA 98, S9+, 25 nM): 0 | Average number of the positive wells (S. typhimurium TA 98; TA 98, S9+, 50 nM): 0 | Average number of the positive wells (S. typhimurium TA 98; TA 98, S9–, 3.125 nM): 0 | Average number of the positive wells (S. typhimurium TA 98; TA 98, S9–, 6.25 nM): 0 | Average number of the positive wells (S. typhimurium TA 98; TA 98, S9–, 12.5 nM): 0 | Average number of the positive wells (S. typhimurium TA 98; TA 98, S9–, 25 nM): 0 | Average number of the positive wells (S. typhimurium TA 98; TA 98, S9–, 50 nM): 0 | Average number of the positive wells (S. typhimurium TA mix; S9+, 3.125 nM): 0 | Average number of the positive wells (S. typhimurium TA mix; S9+, 6.25 nM): 0 | Average number of the positive wells (S. typhimurium TA mix; S9+, 12.5 nM): 0 | Average number of the positive wells (S. typhimurium TA mix; S9+, 25 nM): 0 | Average number of the positive wells (S. typhimurium TA mix; S9+, 50 nM): 15.3 | Average number of the positive wells (S. typhimurium TA mix; S9–, 3.125 nM): 0 | Average number of the positive wells (S. typhimurium TA mix; S9–, 6.25 nM): 0 | Average number of the positive wells (S. typhimurium TA mix; S9–, 12.5 nM): 0 | Average number of the positive wells (S. typhimurium TA mix; S9–, 25 nM): 0 | Average number of the positive wells (S. typhimurium TA mix; S9–, 50 nM): 15.3 | mutagenicity (S. typhimurium TA mix; presence and absence of S9, 50 nM): mutagenicity was detected

Ki [1]: 96.5 ± 6.15 µM | IC50 [1]: 99 ± 7.37 µM
SMILES: CC(C)CNc1nnc(SCC(=O)N(Cc2ccc([N+](=O)[O-])cc2)c2ccc(Cl)cc2)s1 [6e, N-(4-Chlororophenyl)-2-[(5-(isobutylamino)-1,3,4-thiadiazol-2-yl)thio]-N-(4-nitrobenzyl) Acetamide]

SMILES: Nc1ccc2cc3ccccc3cc2c1 [2-AA, 2-Aminoanthracene, reference compound]
Average number of the positive wells (S. typhimurium TA 98; TA 98, S9+, positive control): 16 | Average number of the positive wells (S. typhimurium TA 98; TA 98, S9–, positive control): 16 | Average number of the positive wells (S. typhimurium TA mix; S9+, positive control): 16 | Average number of the positive wells (S. typhimurium TA mix; S9–, positive control): 16

IC50 [1]: > 500 µM
SMILES: CCCCNc1nnc(SCC(=O)N(Cc2ccc([N+](=O)[O-])cc2)c2ccc(F)cc2)s1 [6m, N-(4-Fluorophenyl)-2-[(5-(butylamino)-1,3,4-thiadiazol-2-yl)thio]-N-(4-nitrobenzyl) Acetamide]

IC50 [1]: > 500 µM
SMILES: CC(C)Nc1nnc(SCC(=O)N(Cc2ccc([N+](=O)[O-])cc2)c2ccc(F)cc2)s1 [6l, N-(4-Fluorophenyl)-2-[(5-(isopropylamino)-1,3,4-thiadiazol-2-yl)thio]-N-(4-nitrobenzyl)acetamide]

Ki [1]: 7.86 ± 0.62 µM | IC50 [1]: 8.15 ± 0.48 µM
SMILES: Cc1ccc(Nc2nnc(SCC(=O)N(Cc3ccc([N+](=O)[O-])cc3)c3ccc(F)cc3)s2)cc1 [6q, N-(4-Fluorophenyl)-2-[(5-(4-methylphenylamino)-1,3,4-thiadiazol-2-yl)thio]-N-(4-nitrobenzyl) Acetamide]

Ki [1]: 342 ± 22.4 µM | IC50 [1]: 347 ± 18.3 µM
SMILES: O=C(CSc1nnc(NC2CCCCC2)s1)N(Cc1ccc([N+](=O)[O-])cc1)c1ccc(Cl)cc1 [6f, N-(4-Chlororophenyl)-2-[(5-(cyclohexylamino)-1,3,4-thiadiazol-2-yl)thio]-N-(4-nitrobenzyl) Acetamide]

Ki [1]: 15.9 ± 0.92 µM | IC50 [1]: 16.5 ± 0.93 µM
SMILES: COCCNc1nnc(SCC(=O)N(Cc2ccc([N+](=O)[O-])cc2)c2ccc(F)cc2)s1 [6j, N-(4-Fluorophenyl)-2-[(5-((2-methoxyethyl)amino)-1,3,4-thiadiazol-2-yl)thio]-N-(4-nitrobenzyl) Acetamide]

SMILES: Cc1ccc(Nc2nnc(SCC(=O)N(Cc3ccc([N+](=O)[O-])cc3)c3ccc(Cl)cc3)s2)cc1 [6h, N-(4-Chlororophenyl)-2-[(5-(4-methylphenylamino)-1,3,4-thiadiazol-2-yl)thio]-N-(4-nitrobenzyl) Acetamide]
Ki [1]: 4.48 ± 0.25 µM | IC50 [1]: 4.68 ± 0.23 µM | Average number of the positive wells (S. typhimurium TA 98; TA 98, S9+, 4.7 μM): 0 | Average number of the positive wells (S. typhimurium TA 98; TA 98, S9+, 9.4 μM): 0 | Average number of the positive wells (S. typhimurium TA 98; TA 98, S9+, 18.75 μM): 0 | Average number of the positive wells (S. typhimurium TA 98; TA 98, S9+, 37.5 μM): 0 | Average number of the positive wells (S. typhimurium TA 98; TA 98, S9+, 75 μM): 0 | Average number of the positive wells (S. typhimurium TA 98; TA 98, S9–, 4.7 μM): 0 | Average number of the positive wells (S. typhimurium TA 98; TA 98, S9–, 9.4 μM): 0 | Average number of the positive wells (S. typhimurium TA 98; TA 98, S9–, 18.75 μM): 0 | Average number of the positive wells (S. typhimurium TA 98; TA 98, S9–, 37.5 μM): 0 | Average number of the positive wells (S. typhimurium TA 98; TA 98, S9–, 75 μM): 0 | Average number of the positive wells (S. typhimurium TA mix; S9+, 4.7 μM): 0 | Average number of the positive wells (S. typhimurium TA mix; S9+, 9.4 μM): 0 | Average number of the positive wells (S. typhimurium TA mix; S9+, 18.75 μM): 0 | Average number of the positive wells (S. typhimurium TA mix; S9+, 37.5 μM): 0 | Average number of the positive wells (S. typhimurium TA mix; S9+, 75 μM): 8 | Average number of the positive wells (S. typhimurium TA mix; S9–, 4.7 μM): 0 | Average number of the positive wells (S. typhimurium TA mix; S9–, 9.4 μM): 0 | Average number of the positive wells (S. typhimurium TA mix; S9–, 18.75 μM): 0 | Average number of the positive wells (S. typhimurium TA mix; S9–, 37.5 μM): 0 | Average number of the positive wells (S. typhimurium TA mix; S9–, 75 μM): 5 | mutagenicity (S. typhimurium TA mix; presence and absence of S9, 75 μM): mutagenicity was detected

Ki [1]: 11.9 ± 0.62 µM | IC50 [1]: 12.6 ± 0.75 µM
SMILES: CCNc1nnc(SCC(=O)N(Cc2ccc([N+](=O)[O-])cc2)c2ccc(Cl)cc2)s1 [6a, N-(4-Chlororophenyl)-2-[(5-(ethylamino)-1,3,4-thiadiazol-2-yl)thio]-N-(4-nitrobenzyl) Acetamide]

Ki [1]: 8.38 ± 0.12 µM | IC50 [1]: 8.25 ± 0.56 µM
SMILES: O=C(CSc1nnc(Nc2ccccc2)s1)N(Cc1ccc([N+](=O)[O-])cc1)c1ccc(F)cc1 [6p, N-(4-Fluorophenyl)-2-[(5-(phenylamino)-1,3,4-thiadiazol-2-yl)thio]-N-(4-nitrobenzyl)acetamide]
